Experiment [1] has as its system H929 target cells. Put plainly: Protein 1 induced ADCC after pretreatment of PBMCs with different concentrations (H929 lysis, flow cytometry). The experiment is classed as cell-based, human. Particulars: for % lysis with Protein 1: 0.1 nM Protein 1, % change from DMSO control + Protein 1; for % lysis without Protein 1: % change from DMSO control. How it is done:
PBMCs from two healthy donors were pre-incubated for 24 hours or 48 hours in the presence of CC-92480 or a DMSO control. CC-92480 was added at 0.001 nM, 0.01 nM, 0.1 nM, 1 nM and 10 nM concentrations. After pretreatment, PBMCs were incubated for an additional 18 hours or overnight in the presence of H929 target cells with or without the addition of 0.1 nM of Protein 1. Samples were analyzed via flow cytometry for H929 depletion. Specific lysis was calculated as following: (1−((test sample H929 count)/(H929 count in DMSO control without Protein 1)))*100. PBMCs from two healthy donors were pre-incubated for 24 hours or 48 hours in the presence of CC-220 or a DMSO control. CC-220 was added at 0.01 nM, 0.1 nM, 1 nM, 10 nM and 100 nM concentrations. After pretreatment, PBMCs were incubated for an additional 18 hours or overnight in the presence of H929 target cells with or without the addition of 0.1 nM of Protein 1. Samples were analyzed via flow cytometry for H929 depletion. Specific lysis was calculated as following: (1−((test sample H929 count)/(H929 count in DMSO control without Protein 1)))*100. […] Data is normalized to % change of sample from the control treated DMSO sample+/−Protein 1. For % lysis without Protein 1, the control sample is PBMC pretreated with DMSO+H929. For % lysis with Protein 1, the control sample is PBMC pretreated with DMSO+H929+0.1 nM of Protein 1.
In general terms: A flow cytometer gives signals particle by particle.

For experiment [2], the system named is H929 target cells. Kind of experiment: Protein 1 induced ADCC after pretreatment of both PBMC and H929 target cells. The format is cell-based, human. Here is the method: PBMCs from a healthy donor were pre-incubated for 48 hours in the presence of CC-92480 or CC-220 (iberdomide) or a DMSO control. Additionally, H929 cells were also pre-incubated separately from the PBMCs for 48 hours with CELMoD. For CC-92480, PBMC and H929 were incubated in 0.1 nM, 1 nM or 10 nM concentrations. For CC-220, cells were incubated in 1 nM or 10 nM concentrations. Cells were also pre-incubated in with a DMSO control. After pretreatment, PBMC and H929 were combined based on their matched treatments and incubated for an additional 18 hours or overnight in the presence of a dose range of Protein 1, 0 nM to 10 nM. Samples were analyzed via flow cytometry for H929 depletion. Specific lysis was calculated as following: (1−((test sample H929 count)/(H929 count in DMSO control without PBMC and without Protein 1)))*100. PBMC and H929 cells were pretreated separately with varying doses of CC-92480 (FIG. 14A) or CC-220 (FIG. 14B) or a DMSO control for 48 hours. After pretreatment, PBMCs and H929 target cells were combined and co-cultured overnight with a dose range of Protein 1 at 0 nM to 10 nM. H929 cell depletion was analyzed by flow cytometry. […] Pretreatment of both PBMC and H929 target cells with CC-92480 or CC-220 (iberdomide) enhanced Protein 1 induced ADCC.

Experiment [3] deals with H929 target cells. Kind of experiment: Protein 1 induced ADCC after pretreatment of PBMCs with single concentration, Protein 1 dose range. Particulars: PBMCs pretreated 24 or 48 hours with 0.1 nM CC-92480 or 1 nM CC-220; Protein 1 0 nM to 10 nM. The experiment is classed as cell-based, human. Here is the method: PBMCs from a healthy donor were preincubated for 24 hours or 48 hours in the presence of CC-92480 at 0.1 nM or CC-220 (iberdomide) at 1 nM or a DMSO control. After pretreatment, PBMCs were incubated for an additional 18 hours or overnight in the presence of H929 target cells with concentrations of Protein 1 ranging from 0 nM to 10 nM. Samples were analyzed via flow cytometry for H929 depletion. Specific lysis was calculated as following: (1−((test sample H929 count)/(H929 count in DMSO control without Protein 1)))*100. PBMCs were pretreated 0.1 nM of CC-92480 or 1 nM of CC-220 or DMSO control for either 24 hours (FIG. 13A) or 48 hours (FIG. 13B). After pretreatment, PBMCs were cultured with H929 target cells and 0 nM to 10 nM of Protein 1 overnight. H929 lysis was determined via flow cytometry. Pretreatment of PBMCs with single concentration of CC-92480 or CC-220 enhanced Protein 1 induced ADCC.

The target of experiment [4] is T1, Ikaros (Homo sapiens, UniProt Q13422+Q96SW2). Put plainly: Degradation of Ikaros in primary NK cells (intracellular staining, flow cytometry). The experiment is classed as cell-based. On the set-up: endogenous in cells; host or cells: primary human NK cells gated from healthy-donor PBMCs. Conditions: PBMCs from healthy donors (n=7), dose titrations, 5 hours. Here is the method:
(§1) Intracellular staining of Aiolos and Ikaros in primary human NK cells was performed by flow cytometry gating on live, CD3-CD4-CD8-CD56+CD16+NK cell populations.

Another experiment relates to TMD8 cells. Put plainly: HLA-DR and CD86 expression in TMD8 cells by flow cytometry. The format is cell-based. Particulars: 48 hours. Here is the method: DLBCL cell line TMD8 was treated with avadomide for 48 hours. […] The result corroborated the ChIP-seq analysis (FIG. 10B).
In another experiment the test system is NK cells. Kind of experiment: NK cell proliferation in DLBCL patient PBMCs stimulated with anti-CD3. The format is cell-based, human. Particulars: PBMCs treated 1 hour prior to anti-CD3 stimulation for 3 days. Here is the method:
Percentage of NK cells was analyzed via flow cytometry gated on live CD3-CD19-CD14-CD56+CD16+NK cells. Cytokinic NK cells were […]16^low and cytotoxic NK cells were CD56^lowCD16^high populations.

Experiment [5] concerns interferon stimulated genes. Kind of experiment: Induction of interferon stimulated genes in DLBCL cells. The experiment is classed as cell-based. Particulars: correlated with degradation of Aiolos and Ikaros. How it is done:
(§2) Karpas 422, WSU-DLCL2, U2932 and TMD8 cells were treated with avadomide at a concentration of 0.1, 1, or 10 μM. The expression of Aiolos, Ikaros, […] and IRF4 were measured by western blot.
The induction of interferon stimulated genes was correlated with the degradation of Aiolos and Ikaros. […] Such direct regulation was shown using Chromatin Immunoprecipitation sequencing (ChIP-seq) analysis and generic methods, see, e.g., Hagner et al, Blood, 126(6):779-789 (2015), which is incorporated by reference in its entirety.

Experiment [6] concerns the target T1, Ikaros. Put plainly: Ikaros expression by western blot in DLBCL cells. On the set-up: endogenous in cells; host or cells: Karpas 422, WSU-DLCL2, U2932 and TMD8 DLBCL cells. The experiment is classed as cell-based. Particulars: Karpas 422, WSU-DLCL2, U2932 and TMD8 cells, 0.1, 1, or 10 μM. How it is done: as §2
In experiment [7] the target is T2, Aiolos (Homo sapiens, UniProt Q96SW2+Q9UKT9). Kind of experiment: Degradation of Aiolos in primary NK cells (intracellular staining, flow cytometry). The experiment is classed as cell-based. On the set-up: endogenous in cells; host or cells: primary human NK cells gated from healthy-donor PBMCs. Particulars: PBMCs from healthy donors (n=7), dose titrations, 5 hours. Here is the method:
as §1

Experiment [8] has as its target T2, Aiolos. Kind of experiment: Aiolos expression by western blot in DLBCL cells. The experiment is classed as cell-based. Particulars: Karpas 422, WSU-DLCL2, U2932 and TMD8 cells, 0.1, 1, or 10 μM. On the set-up: endogenous in cells; host or cells: Karpas 422, WSU-DLCL2, U2932 and TMD8 DLBCL cells. Here is the method: as §2
On the technique in general: A western blot detects proteins with antibodies after separation by electrophoresis.

The next experiment relates to NKG2D+ NK cells. Put plainly: Surface expression of NKG2D on NK cells in DLBCL patient PBMC. The format is cell-based, human. Particulars: PBMCs treated 1 hour prior to anti-CD3 stimulation for 3 days. Here is the method:
Surface expression of NKG2D was measured by flow cytometry gated on live CD3-CD19-CD14-CD56+CD16+NK cells.

Setting [9] is: pretreatment 0.1 nM, 24 hour, donor 1.
Setting [10] is: pretreatment 0.1 nM, 24 hour, donor 2.
Setting [11] is: pretreatment 0.1 nM, 48 hour, donor 1.
The mark [12] stands for this setting: pretreatment 0.1 nM, 48 hour, donor 2.
Setting [13] is: pretreatment 10 nM, 24 hour, donor 1.
Setting [14] is: pretreatment 10 nM, 24 hour, donor 2.
Where [15] appears, read: pretreatment 10 nM, 48 hour, donor 1.
[16] abbreviates: pretreatment 10 nM, 48 hour, donor 2.

T2 sequence (Q9UKT9 whole entry): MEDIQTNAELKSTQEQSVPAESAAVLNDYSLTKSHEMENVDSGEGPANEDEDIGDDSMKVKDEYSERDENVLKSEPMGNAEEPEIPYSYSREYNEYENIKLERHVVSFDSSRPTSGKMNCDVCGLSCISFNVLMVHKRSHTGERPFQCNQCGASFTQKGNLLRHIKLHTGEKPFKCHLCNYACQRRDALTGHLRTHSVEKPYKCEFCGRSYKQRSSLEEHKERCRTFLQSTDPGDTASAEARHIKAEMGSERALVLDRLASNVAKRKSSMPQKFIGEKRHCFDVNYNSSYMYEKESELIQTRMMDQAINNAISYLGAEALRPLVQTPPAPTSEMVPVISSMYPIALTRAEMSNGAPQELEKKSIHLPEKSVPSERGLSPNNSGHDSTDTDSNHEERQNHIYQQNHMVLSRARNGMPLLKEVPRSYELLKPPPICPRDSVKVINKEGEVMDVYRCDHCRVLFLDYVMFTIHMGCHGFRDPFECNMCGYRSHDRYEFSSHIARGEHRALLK
T2 sequence (Q96SW2 whole entry): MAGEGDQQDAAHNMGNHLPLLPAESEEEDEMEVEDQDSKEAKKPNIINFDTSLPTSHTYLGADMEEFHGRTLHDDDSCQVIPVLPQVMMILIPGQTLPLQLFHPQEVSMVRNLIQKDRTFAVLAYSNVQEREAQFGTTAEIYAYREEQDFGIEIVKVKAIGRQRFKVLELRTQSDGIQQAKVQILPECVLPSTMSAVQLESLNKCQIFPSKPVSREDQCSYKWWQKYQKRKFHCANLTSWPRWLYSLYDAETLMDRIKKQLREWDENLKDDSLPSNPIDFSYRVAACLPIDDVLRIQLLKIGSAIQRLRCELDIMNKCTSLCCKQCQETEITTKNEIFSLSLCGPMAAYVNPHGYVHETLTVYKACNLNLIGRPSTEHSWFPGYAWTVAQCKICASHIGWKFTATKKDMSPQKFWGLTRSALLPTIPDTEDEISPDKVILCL
T2 sequence (Q16531 whole entry partner): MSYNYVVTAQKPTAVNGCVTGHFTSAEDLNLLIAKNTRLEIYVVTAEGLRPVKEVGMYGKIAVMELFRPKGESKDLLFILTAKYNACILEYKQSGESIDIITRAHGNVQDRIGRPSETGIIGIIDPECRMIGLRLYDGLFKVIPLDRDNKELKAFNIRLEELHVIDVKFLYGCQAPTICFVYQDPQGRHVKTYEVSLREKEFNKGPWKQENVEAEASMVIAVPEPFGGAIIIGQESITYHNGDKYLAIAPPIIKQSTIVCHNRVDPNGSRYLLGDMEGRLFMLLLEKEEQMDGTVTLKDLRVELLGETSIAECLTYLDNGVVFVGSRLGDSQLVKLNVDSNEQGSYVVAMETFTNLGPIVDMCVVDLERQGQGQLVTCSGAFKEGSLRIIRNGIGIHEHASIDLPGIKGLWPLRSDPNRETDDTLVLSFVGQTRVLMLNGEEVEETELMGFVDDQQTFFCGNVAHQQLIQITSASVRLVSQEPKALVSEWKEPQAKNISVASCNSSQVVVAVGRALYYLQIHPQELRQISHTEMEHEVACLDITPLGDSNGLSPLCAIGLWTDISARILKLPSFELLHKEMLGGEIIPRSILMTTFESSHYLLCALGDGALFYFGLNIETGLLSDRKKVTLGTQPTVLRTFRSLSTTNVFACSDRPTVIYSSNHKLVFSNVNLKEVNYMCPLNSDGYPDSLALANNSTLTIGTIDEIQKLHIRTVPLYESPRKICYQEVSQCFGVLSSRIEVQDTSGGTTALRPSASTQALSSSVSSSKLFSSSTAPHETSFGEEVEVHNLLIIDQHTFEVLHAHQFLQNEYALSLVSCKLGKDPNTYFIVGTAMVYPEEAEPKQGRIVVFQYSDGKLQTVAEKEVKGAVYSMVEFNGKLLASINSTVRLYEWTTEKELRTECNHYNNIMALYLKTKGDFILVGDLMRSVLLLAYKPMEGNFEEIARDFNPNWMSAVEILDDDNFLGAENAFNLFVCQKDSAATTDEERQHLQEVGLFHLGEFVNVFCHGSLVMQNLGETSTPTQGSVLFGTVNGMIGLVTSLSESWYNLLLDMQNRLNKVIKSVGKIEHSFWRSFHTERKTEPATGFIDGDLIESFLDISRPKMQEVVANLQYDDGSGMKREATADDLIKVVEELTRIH
T1 sequence (Q13422 whole entry): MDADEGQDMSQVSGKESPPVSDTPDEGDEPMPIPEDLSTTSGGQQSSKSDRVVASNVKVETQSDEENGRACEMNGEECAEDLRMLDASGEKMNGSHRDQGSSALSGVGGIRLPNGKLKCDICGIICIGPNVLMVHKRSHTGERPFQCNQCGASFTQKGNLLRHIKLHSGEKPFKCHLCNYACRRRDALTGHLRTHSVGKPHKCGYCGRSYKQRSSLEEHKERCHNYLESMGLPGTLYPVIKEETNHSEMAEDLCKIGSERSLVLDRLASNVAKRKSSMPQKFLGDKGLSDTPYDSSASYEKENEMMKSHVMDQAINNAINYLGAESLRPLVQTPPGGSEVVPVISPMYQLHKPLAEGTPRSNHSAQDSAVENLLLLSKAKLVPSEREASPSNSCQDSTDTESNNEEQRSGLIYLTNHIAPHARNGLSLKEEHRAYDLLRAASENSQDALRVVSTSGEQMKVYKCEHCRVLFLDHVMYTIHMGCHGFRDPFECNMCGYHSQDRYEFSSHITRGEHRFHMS
T1 sequence (Q96SW2 whole entry): as the sequence (Q96SW2 whole entry) above
T1 sequence (Q16531 whole entry partner): as the sequence (Q16531 whole entry partner) above

`N#Cc1ccc(N2CCN(Cc3ccc(COc4cccc5c4CN([C@H]4CCC(=O)NC4=O)C5=O)cc3)CC2)c(F)c1` [CC-92480, (S)-4-(4-(4-(((2-(2,6-dioxopiperidin-3-yl)-1-oxoisoindolin-4-yl)oxy)methyl)benzyl)piperazin-1-yl)-3-fluorobenzonitrile]: the “Protein 1 induced ADCC (H929 lysis)” value was “enhanced” with H929 target cells [1] (PBMCs pretreated 24 or 48 hours at different concentrations, 0.1 nM Protein 1 overnight) and “enhanced” with H929 target cells [3]. Further, the “% lysis difference with Protein 1” value is given as 48.85% in the experiment on H929 target cells [1] (setting [9]); 76.64% with H929 target cells [1] (setting [10]); 79.40% in the experiment with H929 target cells [1] (setting [11]); 36.79% in the experiment on H929 target cells [1] (setting [12]); 27.75% with H929 target cells [1] (setting [13]); −33.32% in the experiment with H929 target cells [1] (setting [14]). The “% lysis difference with Protein 1” value in the experiment on H929 target cells [1] (setting [15]) is given as 72.35%; in the experiment on H929 target cells [1] (setting [16]) it was 52.72%. The “% lysis with Protein 1” value is reported as 58.27% in the experiment on H929 target cells [1] (setting [9]); 67.82% with H929 target cells [1] (setting [10]); 64.54% in the experiment on H929 target cells [1] (setting [11]); 82.02% in the experiment with H929 target cells [1] (setting [12]); 28.79% with H929 target cells [1] (setting [13]); −43.51% with H929 target cells [1] (setting [14]). The “% lysis with Protein 1” value in the experiment on H929 target cells [1] (setting [15]) came out at 42.46%; with H929 target cells [1] (setting [16]), 59.57%. Besides, the “% lysis without Protein 1” value is 9.42% in the experiment with H929 target cells [1] (setting [9]); −8.82% in the experiment with H929 target cells [1] (setting [10]); −14.86% with H929 target cells [1] (setting [11]); 45.23% in the experiment on H929 target cells [1] (setting [12]); 1.04% in the experiment on H929 target cells [1] (setting [13]); −10.19% in the experiment on H929 target cells [1] (setting [14]). For the same compound, the “% lysis without Protein 1” value in the experiment on H929 target cells [1] (setting [15]) is given as −29.89%; in the experiment on H929 target cells [1] (setting [16]) it was 6.85%. The “susceptibility of H929 target cells to lysis” value in the experiment with H929 target cells [2] (H929 target cells pretreated 48 hours, most notably at Protein 1 0.01-0.1 nM) is on record as “more susceptible to lysis”. Also, the “Protein 1 induced ADCC (H929 cell depletion)” value in the experiment with H929 target cells [2] (PBMC and H929 pretreated separately 48 hours, Protein 1 0 nM to 10 nM) is “enhanced”.

With `Cc1nc2cccc(N)c2c(=O)n1C1CCC(=O)NC1=O` (centres unmarked) [avadomide, 3-(5-amino-2-methyl-4-oxoquinazolin-3(4H)-yl)piperidine-2,6-dione], the “degradation of Ikaros in primary NK cells” value on Ikaros [4] is “mediates degradation”. Besides, in the experiment with TMD8 cells, the “expression of CD86” value is “enhanced expression” and the “expression of HLA-DR” value is reported as “enhanced expression”. Further, the “NK cell proliferation in DLBCL patient samples” value with NK cells is listed as “dose dependently enhanced”. The “induction of interferon stimulated genes in DLBCL cells” value in [5] was “induction”. Further, the “degradation of Ikaros in DLBCL cells” value on Ikaros [6] is “mediated degradation”. The “degradation of Aiolos in primary NK cells” value on Aiolos [7] is recorded as “mediates degradation”. The “degradation of Aiolos in DLBCL cells” value on Aiolos [8] is given as “mediated degradation”. Moreover, the “NKG2D+ NK cells in DLBCL patient PBMC” value with NKG2D+ NK cells was “significantly expanded”.

As to `Nc1cccc2c1CN(C1CCC(=O)NC1=O)C2=O` (centres unmarked) [lenalidomide, 3-(7-amino-3-oxo-1H-isoindol-2-yl)piperidine-2,6-dione], the “NKG2D+ NK cells in DLBCL patient PBMC” value in the experiment on NKG2D+ NK cells is reported as “significantly expanded”.

Source of the values: patent US20230364230A1, “COMBINATION THERAPY FOR CANCER” (ENGMAB SÀRL, priority 2020, published 2023).
